Reference: patent publication US20220031797A1, “PHARMACEUTICAL COMPOSITIONS CONTAINING HYALURONIC ACID AND CARNOSINE AND RELATIVE USE” (FIDIA FARMACEUTICI S.P.A., priority 2017, published 2022)

Tested on: Monosodium Iodoacetate (MIA) Osteoarthritis in Rats
Assay: MIA-induced osteoarthritis in rats, oral treatment, histological evaluation (modified Mankin score)
Assay type: in vivo
Conditions: oral every 24 hours day 3-20, conjugate of Example 2 (35% mol/mol) 88.5 mg/kg, mixture 16.2 mg/kg carnosine + 72.3 mg/kg HA, naproxen 10 mg/kg, day 21, versus MIA-control, FIG. 7
Description: OA was induced in the posterior knee joints of the rats being tested, by the intra-articular injection of MIA: 25 μl of saline containing 1 mg/kg of MIA were injected into the joint (knee) of the right paw of each animal (under treatment) through the infrapatal ligament, whereas the left joint received an equal volume of saline 0.9% (Sagar D R et al, Ann. Rheum. Dis., 2013, 73: 1558-1565).
Male Sprague-Dawley rats, of about 230 g each, were used, 20 rats per group.
Group 1: MIA-control: the animals were treated by MIA induction and subsequently with distilled water administered orally every 24 hours from the 3rd day after MIA until the 20th day, end of the experimentation.
Group 2: MIA+HA/carnosine conjugate: the animals were treated by MIA induction and subsequently with the above-mentioned conjugate every 24 hours from the 3rd day after MIA until the 20th day. The conjugate used for the experimentation was prepared according to Example 2, it was then derivatized at 35% mol/mol, the dose, administered orally, was equal to 88.5 mg/kg of conjugate (16.2 mg of carnosine and 72.3 mg of HA).
Group 3: MIA+HA/carnosine mixture: the animals were treated by MIA induction and subsequently with HA/carnosine every 24 hours starting from the 3rd day after MIA up to the 20th day. […]

COc1ccc2cc([C@H](C)C(=O)O)ccc2c1 [naproxen]
Histological evaluation (modified Mankin Histological score 0-12; histological damage and cartilage degeneration): totally comparable to the effect elicited by naproxen
